Results from patent US6448405B1, “Steroid receptor modulator compounds and methods” (Ligand Pharmaceuticals Incorporated, priority 1994, dated 2002).
Where two headings read alike, the source gives them in different places.

Key:
human PR-B = biological target: T1, human PR-B (Homo sapiens, UniProt P06401); assay: Co-transfection assay, PR agonist and antagonist activity, CV-1 cells; type: cell-based; details: for EC50: agonist mode, read-out: PR Agonist CV-1 Cells Potency;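 on all read-outs here: luciferase reporter driven by a hormone response element, co-transfected with human PR-B into CV-1 monkey kidney cells, agonists raise and antagonists lower the reporter signal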
T1 construct: expressed in transfected cells; host or cells: CV-1 cells (African green monkey kidney fibroblasts), transient transfection
T1 sequence (P06401 1-933): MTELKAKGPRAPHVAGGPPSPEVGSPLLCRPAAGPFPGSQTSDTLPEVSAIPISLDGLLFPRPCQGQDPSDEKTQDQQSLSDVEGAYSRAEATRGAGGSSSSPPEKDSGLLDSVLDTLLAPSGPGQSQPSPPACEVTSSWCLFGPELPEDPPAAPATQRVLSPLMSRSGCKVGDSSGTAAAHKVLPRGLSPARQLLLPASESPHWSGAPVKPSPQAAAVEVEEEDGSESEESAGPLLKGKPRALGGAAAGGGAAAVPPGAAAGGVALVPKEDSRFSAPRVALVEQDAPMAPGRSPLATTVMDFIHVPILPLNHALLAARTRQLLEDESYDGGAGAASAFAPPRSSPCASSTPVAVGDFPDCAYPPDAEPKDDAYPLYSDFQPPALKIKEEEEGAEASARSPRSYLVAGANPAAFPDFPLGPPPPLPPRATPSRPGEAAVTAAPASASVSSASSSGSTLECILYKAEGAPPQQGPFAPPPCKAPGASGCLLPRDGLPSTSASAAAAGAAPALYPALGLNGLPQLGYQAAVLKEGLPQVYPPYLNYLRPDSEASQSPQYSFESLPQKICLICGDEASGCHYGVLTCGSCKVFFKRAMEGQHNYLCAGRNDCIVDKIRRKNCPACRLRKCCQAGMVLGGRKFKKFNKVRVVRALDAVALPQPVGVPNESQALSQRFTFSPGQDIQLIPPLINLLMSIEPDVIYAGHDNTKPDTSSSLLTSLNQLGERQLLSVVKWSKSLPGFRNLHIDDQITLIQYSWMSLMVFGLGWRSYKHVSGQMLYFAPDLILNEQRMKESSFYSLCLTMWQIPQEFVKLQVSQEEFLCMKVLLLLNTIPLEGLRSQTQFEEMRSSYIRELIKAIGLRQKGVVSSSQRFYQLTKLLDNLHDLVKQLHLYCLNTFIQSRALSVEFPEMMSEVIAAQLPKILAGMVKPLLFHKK

[1] = biological target: T2, human progesterone receptor A form (PR-A) (Homo sapiens, UniProt P06401); assay: PR binding assay, baculovirus extract, [3H] progesterone
T2 sequence (P06401 1-769 isoform P06401-2): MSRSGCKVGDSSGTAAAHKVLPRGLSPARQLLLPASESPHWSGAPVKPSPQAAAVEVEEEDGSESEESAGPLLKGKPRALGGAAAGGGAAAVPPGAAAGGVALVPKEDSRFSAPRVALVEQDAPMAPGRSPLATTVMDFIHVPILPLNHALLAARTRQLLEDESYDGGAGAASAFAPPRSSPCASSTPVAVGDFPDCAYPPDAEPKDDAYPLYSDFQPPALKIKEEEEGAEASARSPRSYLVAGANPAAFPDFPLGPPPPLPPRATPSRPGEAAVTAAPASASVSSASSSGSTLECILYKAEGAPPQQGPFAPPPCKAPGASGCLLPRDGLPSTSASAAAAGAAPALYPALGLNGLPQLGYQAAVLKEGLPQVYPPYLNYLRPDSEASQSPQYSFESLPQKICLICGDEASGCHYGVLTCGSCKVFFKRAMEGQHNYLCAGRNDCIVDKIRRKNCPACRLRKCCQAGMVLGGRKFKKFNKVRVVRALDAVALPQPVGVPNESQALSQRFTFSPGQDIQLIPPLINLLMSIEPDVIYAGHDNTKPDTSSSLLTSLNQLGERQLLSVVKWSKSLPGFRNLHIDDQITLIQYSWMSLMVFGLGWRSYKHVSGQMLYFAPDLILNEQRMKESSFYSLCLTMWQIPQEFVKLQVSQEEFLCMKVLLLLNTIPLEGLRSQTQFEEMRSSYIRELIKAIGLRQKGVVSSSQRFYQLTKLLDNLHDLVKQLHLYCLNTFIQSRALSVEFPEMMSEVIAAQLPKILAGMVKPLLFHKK

[2] = read-out: PR Antagonist CV-1 Cells Potency

| SMILES | PR Agonist CV-1 Cells Efficacy (%) (human PR-B) | PR Antagonist CV-1 Cells Efficacy (%) (human PR-B) | EC50 (human PR-B) [nM] | IC50 (human PR-B; [2]) [nM] | Ki ([1]; read-out: PR Binding Ki) [nM] | Ki ([1]; competition with [3H] progesterone, 4° C., 16 hours, read-out: PR Binding Ki) [nM] | IC50 (human PR-B) [nM] | Ki [1] [nM] |
| --- | --- | --- | --- | --- | --- | --- | --- | --- |
| CCCCC1Oc2ccccc2-c2ccc3c(c21)C(C)C(O)(CCCC)C(C)(C)N3 (racemic) [Compound 385, (R/S)-3,5-Dibutyl-1,2,3,4-tetrahydro-3-hydroxy-2,2,4-trimethyl-5H-chromeno[3,4-f]quinoline] | 27% | 45% | 82 | 2300 | 31 |  |  |  |
| CC1C(=O)C(C)(C)Nc2ccc(-c3cc(F)cc(C#N)c3)cc21 (centres unmarked) [Compound 286, 6-(3-Cyano-5-Fluorophenyl)-1,2-dihydro-2,2,4-trimethyl-3-quinolone] | na (na = not active (i.e. efficacy or <20 and potency of >10,000)) | 84% | > 10000 | 155 | 61 |  |  |  |
| CCCO[C@@H]1[C@@H](C)c2c(ccc3c2[C@H](c2ccc(Cl)cc2)Oc2ccccc2-3)NC1(C)C (racemic) [Compound 400, (R/S-3l,4u,5u)-5-(4-Chlorophenyl)-1,2,3,4-tetrahydro-3-propyloxy-2,2,4-trimethyl-5H-chromeno[3,4-f]quinoline] | na (na = not active (i.e. efficacy or <20 and potency of >10,000)) | 68% | > 10000 | 370 | 14 |  |  |  |
| CC1=CC(C)(C)Nc2ccc3c(c21)COc1c(Cl)cccc1-3 [Compound 331, (R/S)-7-Chloro-1,2-dihydro-2,2,4-trimethyl-5H-chromeno[3,4-f]quinoline] | na (na = not active (i.e. efficacy or <20 and potency of >10,000)) | 88% | > 10000 | 210 |  | 273 |  |  |
| CC1C(=O)C(C)(C)Nc2ccc3c(c21)/C(=C/c1cccc(F)c1)Oc1ccccc1-3 (racemic) [Compound 389, (Z)-(R/S)-5-(3-Fluorobenzylidene)-1,2,3,4-tetrahydro-2,2,4-trimethyl-5H-chromeno[3,4-f]-3-quinolinone] | 133% | na (na = not active (i.e. efficacy or <20 and potency of >10,000)) | 17 | > 10000 | 4 |  |  |  |
| CC1=CC(C)(C)Nc2ccc(-n3cnc(Cl)c3Cl)cc21 [Compound 103, 6-(4,5-Dichloroimidazol-1-yl)-1,2-dihydro-2,2,4-trimethylquinoline] | na (na = not active (i.e. efficacy or <20 and potency of >10,000)) | 91% | > 10000 | 780 | 372 |  |  |  |
| CC1(C)C=Cc2c(ccc3c2c(=O)oc2ccc(Cl)cc23)N1 [Compound 313, 9-Chloro-1,2-dihydro-2,2-dimethyl-5-coumarino[3,4-f]quinoline] |  |  | 300 | 140 | 87 |  |  |  |
| CC1=CC(C)(C)Nc2ccc3c(c21)/C(=C/c1ccccc1F)Oc1ccccc1-3 [Compound 228, (Z)-5-(2-Fluorobenzylidene)-1,2-dihydro-2,2,4-trimethyl-5H-chromeno[3,4-f]quinoline] |  | na (key: na = not active (i.e. efficacy or <20 and potency of >10,000)) | 40 |  |  |  | > 10000 | 3 |
| CC1=CC(C)(C)Nc2ccc3c(c21)/C(=C/c1ccccc1)Oc1ccccc1-3 [Compound 220, (Z)-5-Benzylidene-1,2-dihydro-2,2,4-trimethyl-5H-chromeno[3,4-f]quinoline] |  | na (key: na = not active (i.e. efficacy or <20 and potency of >10,000)) | 33 |  |  |  | > 10000 | 1 |
| CC1(C)Nc2ccc3c(c2C(=O)C1(C)C)C(c1ccc(Cl)cc1)Oc1ccccc1-3 (racemic) [Compound 379, (R/S)-5-(4-Chlorophenyl)-1,2,3,4-tetrahydro-2,2,3,3-tetramethyl-5H-chromeno[3,4-f]-4-quinolinone] | na (na = not active (i.e. efficacy or <20 and potency of >10,000)) | 87% | > 10000 | 350 | 25 |  |  |  |
| CC1=CC(C)(C)Nc2cc(C)c3c(c21)/C(=C/c1ccccc1)Oc1ccc(F)cc1-3 [Compound 377, (Z)-5-Benzylidene-9-Fluoro-1,2-dihydro-2,2,4,11-tetramethyl-5H-chromeno[3,4-f]quinoline] | 101% | na (na = not active (i.e. efficacy or <20 and potency of >10,000)) | 550 | > 10000 | 20 |  |  |  |
| CC1=CC(C)(C)Nc2ccc(-c3cccc(Cl)c3Cl)cc21 [Compound 109, 6-(2,3-Dichlorophenyl)-1,2-dihydro-2,2,4-trimethylquinoline] | na (na = not active (i.e. efficacy or <20 and potency of >10,000)) | 87% | > 10000 | 138 | 23 |  |  |  |
